Measured values published in patent US20250059185A1 (Hoffmann-La Roche Inc., priority 2021, published 2025).

biological target: MAGL (Homo sapiens (Human), UniProt Q99685); assay: 2-AG assay (MAGL inhibitory activity, hydrolysis of 2-arachidonoylglycerol followed by mass spectrometry); format: biochemical; conditions: 50 pM MAGL protein, 15 min pre-incubation, 30 min incubation at RT
Description: Compounds of formula (II) were profiled for MAGL inhibitory activity by determining the enzymatic activity by following the hydrolysis of the natural substrate 2-arachidonoylglycerol (2-AG) resulting in arachidonic acid, which can be followed by mass spectrometry. This assay is hereinafter abbreviated “2-AG assay”.
Compounds of formula (II) were profiled for MAGL inhibitory activity by determining the enzymatic activity by following the hydrolysis of the natural substrate 2-arachidonoylglycerol (2-AG) resulting in arachidonic acid, which can be followed by mass spectrometry. This assay is hereinafter abbreviated “2-AG assay”. The 2-AG assay was carried out in 384 well polypropylene assay plates. Compound dilutions were made in 100% DMSO in a polypropylene plate in 3-fold dilution steps to give a final concentration range in the assay from 12.5 μM to 0.8 pM. Compound dilutions were added to MAGL protein in assay buffer (50 mM TRIS, 1 mM EDTA, 0.01% (v/v) Tween-20, 2.5% (v/v) DMSO). After shaking, the plate was incubated for 15 min at RT. To start the reaction, 2-arachidonoylglycerol in assay buffer was added. The final concentrations in the assay was 50 pM for MAGL protein and […] 2-arachidonoylglyerol. After shaking and 30 min incubation at RT, the reaction was quenched by the addition of two assay volumes of acetonitrile containing 4 μM of d8-arachidonic acid. The amount of arachidonic acid formed was traced by an online SPE system (Agilent Rapidfire) coupled to a triple quadrupole mass spectrometer. A C18 SPE cartridge (Agilent G9205A) was used in an acetonitrile/water liquid setup. The mass spectrometer was operated in negative electrospray mode following the mass transitions 303.1→259.1 for arachidonic acid and 311.1→267.0 for d8-arachidonic acid. The activity of the compounds was calculated based on the ratio of intensities [arachidonic acid/d8-arachidonic acid].

Sequence of MAGL (Q99685 whole entry, species assumed): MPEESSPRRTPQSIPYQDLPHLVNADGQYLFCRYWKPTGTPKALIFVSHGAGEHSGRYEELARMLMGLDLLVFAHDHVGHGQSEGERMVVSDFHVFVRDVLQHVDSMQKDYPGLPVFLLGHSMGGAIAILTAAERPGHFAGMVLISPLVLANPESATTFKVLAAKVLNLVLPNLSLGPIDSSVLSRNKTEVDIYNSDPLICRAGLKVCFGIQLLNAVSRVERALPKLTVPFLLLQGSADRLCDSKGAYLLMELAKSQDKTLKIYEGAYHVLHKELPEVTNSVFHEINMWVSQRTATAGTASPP

Row | IC50 [nM] | Structure (SMILES)
1 | 2000 | C[C@@H]1c2nn(C)c(-c3cc(F)cc(F)c3)c2CCN1C(=O)c1cc(F)cc(OCC2CNC(=O)O2)c1Cl (single isomer, unassigned) [Example 52, 5-[[2-Chloro-3-[3-(3,5-difluorophenyl)-2,7-dimethyl-5,7-dihydro-4H-pyrazolo[3,4-c]pyridine-6-carbonyl]-5-fluoro-phenoxy]methyl]oxazolidin-2-one]
2 | 42.4 | C[C@H]1c2nn(C)c(-c3cc(F)cc(F)c3)c2CCN1C(=O)c1cc(F)cc(CCc2c[nH]nn2)c1Cl [Example 104, [2-chloro-5-fluoro-3-[2-(JH-triazol-4-yl)ethyl]phenyl]-[(7S)-3-(3,5-difluorophenyl)-2,7-dimethyl-5,7-dihydro-4H-pyrazolo[3,4-c]pyridin-6-yl]methanone]
3 | 26.8 | C[C@@H]1c2nn(C)c(-c3cc(Cl)cc(C4(NS(C)(=O)=O)CC4)c3)c2CCN1C(=O)c1cc(F)cc(CCc2c[nH]nn2)c1Cl [Example 89, N-[1-[3-chloro-5-[(7R)-6-[2-chloro-5-fluoro-3-[2-(1H-triazol-4-yl)ethyl]benzoyl]-2,7-dimethyl-5,7-dihydro-4H-pyrazolo[3,4-c]pyridin-3-yl]phenyl]cyclopropyl]methanesulfonamide]
4 | 27 | C[C@H]1c2nn(C)c(-c3cc(F)cc(F)c3)c2CCN1C(=O)c1cc(F)cc(N2CC3(C2)CS(=O)(=O)C3)c1Cl [Example 20, [2-Chloro-3-(2,2-dioxo-2λ^6-thia-6-azaspiro[3.3]heptan-6-yl)-5-fluoro-phenyl]-[(7S)-3-(3,5-difluorophenyl)-2,7-dimethyl-5,7-dihydro-4H-pyrazolo[3,4-c]pyridine-6-yl]methanone]
5 | 21 | COc1cccc(C(=O)N2CCc3c(nn(C)c3-c3ccnc(C(F)(F)F)n3)[C@@H]2C)c1Cl [Example 81, (2-chloro-3-methoxy-phenyl)-[(7S)-2,7-dimethyl-3-[2-(trifluoromethyl)pyrimidin-4-yl]-5,7-dihydro-4H-pyrazolo[3,4-c]pyridin-6-yl]methanone]
6 | 3080 | COc1cccc(C(=O)N2CCc3c(nn(C)c3-c3cncc(CC(N)=O)c3)[C@@H]2C)c1Cl [Example 18, 2-[5-[(7S)-6-(2-Chloro-3-methoxy-benzoyl)-2,7-dimethyl-5,7-dihydro-4H-pyrazolo[3,4-c]pyridin-3-yl]-3-pyridyl]acetamide]
7 | 26 | C[C@H]1c2nn(C)c(-c3cc(F)cc(F)c3)c2CCN1C(=O)c1ccnc(OCC2CNC(=O)O2)c1Cl (stereo partly drawn) [Example 42, 5-[[3-Chloro-4-[(7S)-3-(3,5-difluorophenyl)-2,7-dimethyl-5,7-dihydro-4H-pyrazolo[3,4-c]pyridine-6-carbonyl]-2-pyridyl]oxymethyl]oxazolidin-2-one]
8 | 183 | COc1cccc(C(=O)N2CCc3c(nn(C)c3-c3cncc(C(F)(F)F)n3)[C@@H]2C)c1Cl [Example 8, (2-Chloro-3-methoxy-phenyl)-[(7S)-2,7-dimethyl-3-[6-(trifluoromethyl)pyrazin-2-yl]-5,7-dihydro-4H-pyrazolo[3,4-c]pyridin-6-yl]methanone]
9 | 472 | C[C@H]1c2nn(C)c(-c3cc(Cl)cc(C4(NS(C)(=O)=O)CC4)c3)c2CCN1C(=O)c1cc(F)cc(-c2cn[nH]c2)c1F [Example 94, N-[1-[3-chloro-5-[(7S)-6-[2,5-difluoro-3-(1H-pyrazol-4-yl)benzoyl]-2,7-dimethyl-5,7-dihydro-4H-pyrazolo[3,4-c]pyridin-3-yl]phenyl]cyclopropyl]methanesulfonamide]
10 | 293 | C[C@@H]1c2nn(C)c(-c3cc(Cl)cc(C4(S(C)(=O)=O)CC4)c3)c2CCN1C(=O)c1cc(F)cc(-c2ccc(=O)[nH]c2)c1Cl [Example 74, 5-[2-chloro-3-[(7R)-3-[3-chloro-5-(1-methylsulfonylcyclopropyl)phenyl]-2,7-dimethyl-5,7-dihydro-4H-pyrazolo[3,4-c]pyridine-6-carbonyl]-5-fluoro-phenyl]-1H-pyridin-2-one]
11 | 17 | COc1cccc(C(=O)N2CCc3c(nn(C)c3-c3cc(Cl)cc(C4(NS(C)(=O)=O)CC4)c3)[C@@H]2C)c1Cl [Example 7, N-[1-[3-Chloro-5-[(7S)-6-(2-chloro-3-methoxy-benzoyl)-2,7-dimethyl-5,7-dihydro-4H-pyrazolo[3,4-c]pyridin-3-yl]phenyl]cyclopropyl]methanesulfonamide]
12 | 7 | CC1c2nn(C)c(-c3cc(Cl)cc(C4(NS(C)(=O)=O)CC4)c3)c2CCN1C(=O)c1cc(F)cc(-c2ccc(=O)[nH]c2)c1Cl (stereo not shown) [Example 55, N-[1-[3-Chloro-5-[6-[2-chloro-5-fluoro-3-(6-oxo-1H-pyridin-3-yl)benzoyl]-2,7-dimethyl-5,7-dihydro-4H-pyrazolo[3,4-c]pyridin-3-yl]phenyl]cyclopropyl]methanesulfonamide]
13 | 388 | C[C@@H]1c2nn(C)c(-c3cc(F)cc(F)c3)c2CCN1C(=O)c1cc(F)cc(-c2ccc(=O)[nH]c2)c1Cl [Example 30, 5-[2-Chloro-3-[(7R)-3-(3,5-difluorophenyl)-2,7-dimethyl-5,7-dihydro-4H-pyrazolo[3,4-c]pyridine-6-carbonyl]-5-fluoro-phenyl]-1H-pyridin-2-one]
14 | 261 | CC1c2nn(C)c(-c3cc(F)cc(F)c3)c2CCN1C(=O)c1ccc(CCC2CNC(=O)C2)cc1Cl (stereo not shown) [Example 44, 4-[2-[3-Chloro-4-[3-(3,5-difluorophenyl)-2,7-dimethyl-5,7-dihydro-4H-pyrazolo[3,4-c]pyridine-6-carbonyl]phenyl]ethyl]pyrrolidin-2-one]
15 | 767 | C[C@@H]1c2nn(C)c(-c3cc(F)cc(F)c3)c2CCN1C(=O)c1cc(F)cc(C2=CC(Cl)C(=O)N=C2)c1Cl (stereo partly drawn) [Example 99, 3-chloro-5-[2-chloro-3-[(7R)-3-(3,5-difluorophenyl)-2,7-dimethyl-5,7-dihydro-4H-pyrazolo[3,4-c]pyridine-6-carbonyl]-5-fluoro-phenyl]-3H-pyridin-2-one]
16 | 0.5 | CC1c2nn(C)c(-c3cc(F)cc(F)c3)c2CCN1C(=O)c1cc(F)cc(OCC2CNC(=O)C2)c1Cl (single isomer, unassigned) [Example 38, 4-[[2-Chloro-3-[3-(3,5-difluorophenyl)-2,7-dimethyl-5,7-dihydro-4H-pyrazolo[3,4-c]pyridine-6-carbonyl]-5-fluoro-phenoxy]methyl]pyrrolidin-2-one]
17 | 14 | COc1cccc(C(=O)N2CCc3c(nn(C)c3-c3cc(Cl)cc(CNS(C)(=O)=O)c3)[C@@H]2C)c1Cl [Example 1, N-[[3-Chloro-5-[(7S)-6-(2-chloro-3-methoxy-benzoyl)-2,7-dimethyl-5,7-dihydro-4H-pyrazolo[3,4-c]pyridin-3-yl]phenyl]methyl]methanesulfonamide]
18 | 552 | C[C@@H]1c2nn(C)c(-c3cc(Cl)cc(S(N)(=O)=O)c3)c2CCN1C(=O)c1ncn(-c2ccc[nH]c2=O)n1 [Example 63, 3-Chloro-5-[(7R)-2,7-dimethyl-6-[1-(2-oxo-1H-pyridin-3-yl)-1,2,4-triazole-3-carbonyl]-5,7-dihydro-4H-pyrazolo[3,4-c]pyridin-3-yl]benzenesulfonamide]
19 | 2160 | C[C@H]1c2nn(C)c(-c3cc(Cl)cc(C4(C(N)=O)CC4)c3)c2CCN1C(=O)c1cc(F)cc(-c2c[nH]c(C#N)c2)c1Cl [Example 71, 1-[3-chloro-5-[(7S)-6-[2-chloro-3-(5-cyano-1H-pyrrol-3-yl)-5-fluoro-benzoyl]-2,7-dimethyl-5,7-dihydro-4H-pyrazolo[3,4-c]pyridin-3-yl]phenyl]cyclopropanecarboxamide]
